Reference: BindingDB's records for doi:10.1021/jm100809g (F. Hoffmann-La Roche, 2011)

biological target: Carnitine O-palmitoyltransferase 1, liver isoform (Rattus norvegicus) (UniProt P32198); test: Maximal inhibition of rat CPT1A
Sequence (P32198 whole entry, looked up, canonical isoform): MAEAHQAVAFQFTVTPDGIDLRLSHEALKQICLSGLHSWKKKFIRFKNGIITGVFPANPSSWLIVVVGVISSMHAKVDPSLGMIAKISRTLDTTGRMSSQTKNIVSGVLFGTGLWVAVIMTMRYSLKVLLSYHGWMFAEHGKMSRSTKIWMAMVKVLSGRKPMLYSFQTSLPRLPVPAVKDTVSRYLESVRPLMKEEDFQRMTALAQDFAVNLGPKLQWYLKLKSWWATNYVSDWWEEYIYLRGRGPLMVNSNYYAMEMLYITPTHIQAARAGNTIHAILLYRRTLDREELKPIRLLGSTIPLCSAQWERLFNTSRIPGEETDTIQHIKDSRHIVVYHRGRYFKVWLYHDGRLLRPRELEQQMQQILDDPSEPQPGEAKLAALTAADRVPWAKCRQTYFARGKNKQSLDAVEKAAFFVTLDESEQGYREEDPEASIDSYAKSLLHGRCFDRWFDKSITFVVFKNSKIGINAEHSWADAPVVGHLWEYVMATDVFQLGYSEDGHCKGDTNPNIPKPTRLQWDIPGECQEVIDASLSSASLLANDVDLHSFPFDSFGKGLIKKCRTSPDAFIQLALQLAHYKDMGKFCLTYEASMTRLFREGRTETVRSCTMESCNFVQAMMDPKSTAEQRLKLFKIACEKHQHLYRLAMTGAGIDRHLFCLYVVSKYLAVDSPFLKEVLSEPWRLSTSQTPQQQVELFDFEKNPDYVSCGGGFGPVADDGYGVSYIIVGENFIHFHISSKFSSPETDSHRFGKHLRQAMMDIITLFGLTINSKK

Going from `C[N+](C)(C)C[C@H](N)CC(=O)[O-]` to `CCCCCCCCCCCCCCNC(=O)N[C@H](CC(=O)[O-])C[N+](C)(C)C` [[3-Carboxy-2-(3-tetradecyl-ureido)-propyl]-trimethyl-ammonium], the IC50 falls from 27300 nM to 1450 nM (19-fold). The second is the more potent here.

`O=C(COc1ccccc1)N1CCCC[C@@H]1c1nc(-c2ccccn2)cs1` and `O=C(NCc1cccs1)c1nn(Cc2cccc(C(F)(F)F)c2)c2ccccc12` are within 1.5-fold of each other in IC50: 130 nM for the first, 150 nM for the second.

Going from `COc1ccc(C)cc1S(=O)(=O)N1CCCc2ccc(C(=O)Nc3ccc(CC(=O)O)cc3)cc21` to `COc1ccc(Cl)cc1S(=O)(=O)N1CCc2ccc(C(=O)Nc3ccc(C(=O)O)cc3)cc21`, the IC50 falls from 180 nM to 55 nM (3.3-fold).

`COc1ccc(Cl)cc1S(=O)(=O)N1CC(C(=O)O)Oc2ccc(C(=O)Nc3cccc(F)c3)cc21` (configuration not stated) gave an IC50 of 30 nM.
